# Measured values as given in patent US20210009542A1 (Calico Life Sciences LLC, priority 2018, published 2021).
# Target: T1, His tagged PTPN2 (TC45) protein (Homo sapiens, UniProt P17706)
# T1 construct: made in house
# T1 sequence (P17706 with tags, fused parts or gaps isoform P17706-2): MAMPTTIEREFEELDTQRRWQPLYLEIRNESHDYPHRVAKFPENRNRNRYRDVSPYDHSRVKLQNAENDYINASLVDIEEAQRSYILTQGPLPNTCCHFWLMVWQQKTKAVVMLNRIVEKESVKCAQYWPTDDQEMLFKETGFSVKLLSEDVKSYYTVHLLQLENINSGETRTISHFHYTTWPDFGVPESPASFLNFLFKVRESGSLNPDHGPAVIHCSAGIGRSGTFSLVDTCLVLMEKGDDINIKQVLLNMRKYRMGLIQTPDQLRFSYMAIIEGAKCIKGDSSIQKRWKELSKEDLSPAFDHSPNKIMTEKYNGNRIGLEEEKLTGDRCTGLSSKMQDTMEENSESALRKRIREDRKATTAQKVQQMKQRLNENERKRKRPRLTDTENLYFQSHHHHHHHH
# Assay: Mobility shift assay (MSA) for potency of PTPN2 inhibitors
# Format: biochemical
# Conditions: read-out: PTPN2 MSA IC50
# Description: Compound activity was determined using in house His tagged PTPN2 (TC45) protein (SEQ ID NO: 1) in an in vitro enzymatic reaction. The enzymatic assay used to determine activity was a mobility shift assay using a LabChip EZ Reader by Caliper Life Sciences. The enzymatic reaction was carried out in assay buffer (50 mM HEPES pH 7.5, 1 mM EGTA, 10 mM EDTA, 0.01% Tween® 20, and 2 mM DTT). The compounds were dispensed on a white 384 well ProxiPlate™ (PerkinElmer Catalog #6008289) plate using the Labcyte Echo at varying concentrations (12 point, 1:3 dilution). The enzyme (at 0.5 nM) was incubated with compound for 10 minutes at room temperature. Then the substrate (phosphorylated insulin receptor probe sequence: ((OG488)-(NH—CH2—CH2—O—CH2—CH2—O—CH2—CO)-T-R-D-I-(PY)-E-T-D-Y-Y-R-K-K-NH2) (SEQ ID NO: 2) was added at […] to the plates and incubated for another 10 minutes at room temperature. Finally, a quench solution (water and 4-bromo-3-(2-oxo-2-propoxyethoxy)-5-(3-{[1-(phenylmethanesulfonyl)piperidin-4-yl]amino}phenyl)thiophene-2-carboxylic acid) was added to the plates, which were then run on the EZ Reader (excitation 488 nm, emission 530 nm) to measure % conversion (the amount of phosphorylated substrate which was de-phosphorylated by PTPN2). […] The % inhibition was then used to calculate the IC50 values.
row,Structure (SMILES),IC50 [nM]
1,"O=C1CN(c2c(O)cc3ccc(OCCN4CCOCC4)cc3c2F)S(=O)(=O)N1 [Compound 100, 5-{1-fluoro-3-hydroxy-7-[2-(morpholin-4-yl)ethoxy]naphthalen-2-yl}-1λ^6,2,5-thiadiazolidine-1,1,3-trione]",1 to 10
2,"O=C(CNc1ccc2cc(O)c(N3CC(=O)NS3(=O)=O)c(F)c2c1)NCCC1CC1 [Compound 268, N-(2-cyclopropylethyl)-2-{[8-fluoro-6-hydroxy-7-(1,1,4-trioxo-1λ^6,2,5-thiadiazolidin-2-yl)naphthalen-2-yl]amino}acetamide]",1 to 10
3,"CNC(=O)CCCOc1ccc2cc(O)c(N3CC(=O)NS3(=O)=O)c(F)c2c1 [Compound 269, 4-{[8-fluoro-6-hydroxy-7-(1,1,4-trioxo-1λ^6,2,5-thiadiazolidin-2-yl)naphthalen-2-yl]oxy}-N-methylbutanamide]",1 to 10
4,"CCNC(=O)NCCOc1ccc2cc(O)c(N3CC(=O)NS3(=O)=O)c(F)c2c1 [Compound 270, N-ethyl-N′-(2-{[8-fluoro-6-hydroxy-7-(1,1,4-trioxo-1λ^6,2,5-thiadiazolidin-2-yl)naphthalen-2-yl]oxy}ethyl)urea]",1 to 10
5,"O=C1CN(c2c(O)cc3ccc(C4=CCN(CC(F)(F)F)CC4)cc3c2F)S(=O)(=O)N1 [Compound 275, 5-{1-fluoro-3-hydroxy-7-[1-(2,2,2-trifluoroethyl)-1,2,3,6-tetrahydropyridin-4-yl]naphthalen-2-yl}-1λ^6,2,5-thiadiazolidine-1,1,3-trione]",1 to 10
6,"O=C(O)CNc1ccc2cc(O)c(N3CC(=O)NS3(=O)=O)c(F)c2c1 [Compound 280, {[8-fluoro-6-hydroxy-7-(1,1,4-trioxo-1λ^6,2,5-thiadiazolidin-2-yl)naphthalen-2-yl]amino}acetic acid]",10 to 100
7,"CS(=O)(=O)N1CCC(Oc2ccc3cc(O)c(N4CC(=O)NS4(=O)=O)c(F)c3c2)CC1 [Compound 284, 5-(1-fluoro-3-hydroxy-7-{[1-(methanesulfonyl)piperidin-4-yl]oxy}naphthalen-2-yl)-1λ^6,2,5-thiadiazolidine-1,1,3-trione]",1 to 10
8,"COCCS(=O)(=O)N1CC=C(c2ccc3cc(O)c(N4CC(=O)NS4(=O)=O)c(F)c3c2)C1 [Compound 286, 5-{1-fluoro-3-hydroxy-7-[1-(2-methoxyethanesulfonyl)-2,5-dihydro-1H-pyrrol-3-yl]naphthalen-2-yl}-1λ^6,2,5-thiadiazolidine-1,1,3-trione]",< 1
9,"O=C1CN(c2c(O)cc3ccc(C4=CCN(S(=O)(=O)CCC(F)(F)F)C4)cc3c2F)S(=O)(=O)N1 [Compound 287, 5-{1-fluoro-3-hydroxy-7-[1-(3,3,3-trifluoropropane-1-sulfonyl)-2,5-dihydro-1H-pyrrol-3-yl]naphthalen-2-yl}-1λ^6,2,5-thiadiazolidine-1,1,3-trione]",< 1
10,"O=C1CN(c2c(O)cc3ccc(C4=CCN(S(=O)(=O)CCCC(F)(F)F)C4)cc3c2F)S(=O)(=O)N1 [Compound 290, 5-{1-fluoro-3-hydroxy-7-[1-(4,4,4-trifluorobutane-1-sulfonyl)-2,5-dihydro-1H-pyrrol-3-yl]naphthalen-2-yl}-1λ^6,2,5-thiadiazolidine-1,1,3-trione]",< 1
11,"CCCCS(=O)(=O)N1CC=C(c2ccc3cc(O)c(N4CC(=O)NS4(=O)=O)c(F)c3c2)C1 [Compound 291, 5-{7-[1-(butane-1-sulfonyl)-2,5-dihydro-1H-pyrrol-3-yl]-1-fluoro-3-hydroxynaphthalen-2-yl}-1λ^6,2,5-thiadiazolidine-1,1,3-trione]",< 1
12,"N#CCCCCS(=O)(=O)N1CC=C(c2ccc3cc(O)c(N4CC(=O)NS4(=O)=O)c(F)c3c2)C1 [Compound 293, 5-{3-[8-fluoro-6-hydroxy-7-(1,1,4-trioxo-1λ^6,2,5-thiadiazolidin-2-yl)naphthalen-2-yl]-2,5-dihydro-1H-pyrrole-1-sulfonyl}pentanenitrile]",< 1
13,"O=C1CN(c2c(O)cc3ccc(C4=CCN(S(=O)(=O)c5ccoc5)C4)cc3c2F)S(=O)(=O)N1 [Compound 312, 5-{1-fluoro-7-[1-(furan-3-sulfonyl)-2,5-dihydro-1H-pyrrol-3-yl]-3-hydroxynaphthalen-2-yl}-1λ^6,2,5-thiadiazolidine-1,1,3-trione]",< 1
14,"O=C1CN(c2c(O)cc3ccc(C4=CCN(S(=O)(=O)c5ccsc5)C4)cc3c2F)S(=O)(=O)N1 [Compound 314, 5-{1-fluoro-3-hydroxy-7-[1-(thiophene-3-sulfonyl)-2,5-dihydro-1H-pyrrol-3-yl]naphthalen-2-yl}-1λ^6,2,5-thiadiazolidine-1,1,3-trione]",< 1
15,"O=C1CN(c2c(O)cc3ccc(C4=CCN(S(=O)(=O)c5ccccc5)C4)cc3c2F)S(=O)(=O)N1 [Compound 315, 5-{7-[1-(benzenesulfonyl)-2,5-dihydro-1H-pyrrol-3-yl]-1-fluoro-3-hydroxynaphthalen-2-yl}-1λ^6,2,5-thiadiazolidine-1,1,3-trione]",< 1
16,"O=C1CN(c2c(O)cc3ccc(C4=CCN(S(=O)(=O)C5CCC5)C4)cc3c2F)S(=O)(=O)N1 [Compound 316, 5-{7-[1-(cyclobutanesulfonyl)-2,5-dihydro-1H-pyrrol-3-yl]-1-fluoro-3-hydroxynaphthalen-2-yl}-1λ^6,2,5-thiadiazolidine-1,1,3-trione]",< 1
17,"COC(=O)[C@@H](N)CCOc1ccc2cc(O)c(N3CC(=O)NS3(=O)=O)c(F)c2c1 [Compound 317, methyl (2S)-2-amino-4-{[8-fluoro-6-hydroxy-7-(1,1,4-trioxo-1λ^6,2,5-thiadiazolidin-2-yl)naphthalen-2-yl]oxy}butanoate]",1 to 10
18,"Cc1n[nH]c(C)c1COc1ccc2cc(O)c(N3CC(=O)NS3(=O)=O)c(F)c2c1 [Compound 318, 5-{7-[(3,5-dimethyl-1H-pyrazol-4-yl)methoxy]-1-fluoro-3-hydroxynaphthalen-2-yl}-1λ^6,2,5-thiadiazolidine-1,1,3-trione]",1 to 10
19,"Cc1n[nH]c(C)c1-c1ccc2cc(O)c(N3CC(=O)NS3(=O)=O)c(F)c2c1 [Compound 319, 5-[7-(3,5-dimethyl-1H-pyrazol-4-yl)-1-fluoro-3-hydroxynaphthalen-2-yl]-1λ^6,2,5-thiadiazolidine-1,1,3-trione]",1 to 10
20,"O=C1CN(c2c(O)cc3ccc(OCCC4CCCCC4)cc3c2F)S(=O)(=O)N1 [Compound 320, 5-[7-(2-cyclohexylethoxy)-1-fluoro-3-hydroxynaphthalen-2-yl]-1λ^6,2,5-thiadiazolidine-1,1,3-trione]",< 1
21,"N#Cc1c[nH]c(-c2ccc3cc(O)c(N4CC(=O)NS4(=O)=O)c(F)c3c2)n1 [Compound 321, 2-[8-fluoro-6-hydroxy-7-(1,1,4-trioxo-1λ^6,2,5-thiadiazolidin-2-yl)naphthalen-2-yl]-1H-imidazole-4-carbonitrile]",1 to 10

# System: B16F10 mouse melanoma cells
# Assay: B16F10 IFNγ-induced cellular growth inhibition assay
# Format: cell-based
# Conditions: Mus musculus, B16-F10; +0.5 ng/mL IFNγ; 33 μM compound; relative to DMSO control; read-out: % B16F10 growth inhibition (+0.5 ng/mL IFNγ) @ 33 μM
# Description: B16F10 mouse melanoma cells (ATCC Cat ^#CRL-6475, Manassas, Va.) were seeded at a density of 500 cells per well in a 384-well clear bottom plate (Corning Cat^# 3765, Corning, N.Y.) in 25 μL total volume of DMEM+10% FBS (Sigma Cat ^#D6429 and Sigma Cat ^#F4135, St. Louis, Mo.). Cells were allowed to adhere overnight at 37° C.+5% CO2. On the following day, 12.5 μL of mouse IFNγ (RD systems Cat485-MI/CF, Minneapolis, Minn.) was added to half of the plate (columns 13-24) at a concentration of 2 ng/mL for a final assay concentration of 0.5 ng/mL of IFNγ. Media only (12.5 μL of DMEM+10% FBS) was added to the remainder of the plate (columns 1-12). Next, compounds resuspended in DMSO (Sigma Cat ^#D2650) at 100 mM were diluted in semi-log dilutions in DMSO ranging from 100 mM to 0.001 mM and DMSO only controls were included. The compound/DMSO dilutions were further diluted 1:250 in DMEM+10% FBS, and 12.5 μL of these dilutions were added in triplicates to cells of both treatment arms (with and without IFNγ). Final compound concentrations ranged from 100 μM to 0.001 μM with a final DMSO concentration of 0.1%. Compounds were only dosed in the inner 240 wells, avoiding the outer 2-well perimeter of the plate to minimize edge effects. Finally, the plate was loaded into an IncuCyte® S3 Live Cell Analysis System (Essen Bioscience-Sartorius, Ann Arbor, Mich.) maintained in a 37° C.+5% CO2 incubator, allowed to equilibrate for 2 hours, and imaged every 6 hours for 5 days. Confluence over time for compound dilutions in the presence and absence of IFNγ was measured. Growth inhibition values were obtained when the “DMSO/no IFNγ” control reached confluence >95%. At these time points, the percent growth inhibition of each compound at the indicated concentration was calculated relative to the “DMSO/with IFNγ” control.
row,Structure (SMILES),inhibition at 33 µM [%]
1,"O=C1CN(c2c(O)cc3ccc(OCCN4CCOCC4)cc3c2F)S(=O)(=O)N1 [Compound 100, 5-{1-fluoro-3-hydroxy-7-[2-(morpholin-4-yl)ethoxy]naphthalen-2-yl}-1λ^6,2,5-thiadiazolidine-1,1,3-trione]",> 90

# Same assay, conditions: Mus musculus, B16-F10; no IFNγ; 33 μM compound; read-out: % B16F10 growth inhibition (no IFNγ) @ 33 μM
row,Structure (SMILES),inhibition at 33 µM [%]
1,"O=C1CN(c2c(O)cc3ccc(OCCN4CCOCC4)cc3c2F)S(=O)(=O)N1 [Compound 100, 5-{1-fluoro-3-hydroxy-7-[2-(morpholin-4-yl)ethoxy]naphthalen-2-yl}-1λ^6,2,5-thiadiazolidine-1,1,3-trione]",< 25
